Assay results taken from US20100292210A1, “Novel Compounds for A-Beta-Related Pathologies” (AstraZeneca AB, priority 2009, published 2010).

Tested on: Aβ42 release
Experiment: Aβ42 release from HEK cells stably expressing APPswe, Meso Scale Discovery electrochemiluminescence assay
Type: cell-based
Details: Homo sapiens, HEK293; HEK cell line stably expressing APPswe; 4-6 h incubation with test compound; Aβ42 secreted to cell medium; read-out: pIC50 values of Aβ42 release (converted)
Experimental: The level of activity of the compounds on Aβ formation was tested using the following method:
Compounds were diluted in 100% DMSO and stored at […] prior to use. Human Embryonic Kidney (HEK) cell line stably expressing APP with the Swedish mutation (APPswe) were cultured using Dulbecco's Modified Eagles medium (DMEM) supplied with […] glucose, Na-pyruvate and GlutaMAX with 10% FBS, 100 U/ml penicillin-streptomycin (PEST) respectively, 1×non-essential amino acids (NEAA), […], 100 μg/ml Zeocine. Cells at about 80% confluence were washed with PBS, detached from culture flasks using 1×Trypsin/EDTA diluted in PBS, re-suspended in cell media and plated in 384-well poly-d-lysine coated cell culture plates at about 10000-15000 cells/well, in 25 μL cell media. Optionally, cryo-preserved cells (frozen and stored at −140° C. in 90% cell media and 10% DMSO) were thawed, washed and plated as above. Next the cells were incubated for 15-24 h at 37° C. and 5% CO2, after which cell medium was changed. Fresh medium containing test compound diluted ×200 from prepared compound plate was added to the cells before further incubation for 4-6 hours at 37° C. and 5% CO2. After incubation with test compound the amount of Aβ peptides, including Aβ42, Aβ40, Aβ39, Aβ38 and Aβ37, secreted to cell medium was analyzed using the electrochemiluminescence assay technology from Meso Scale Discovery Technology, in combination with specific antibodies raised against the different Aβ peptides. Potential cytotoxic effects of the compounds were usually assayed by measuring the ATP content (ViaLight) from cell lysate.

| IC50 [µM] | Compound |
| --- | --- |
| 0.631 | Cc1cncn1-c1ccc(Nc2ccc3c(n2)O[C@H](c2ccccc2)CN(CCO)C3)cc1 [Example 30, (R)-2-(8-(4-(5-methyl-1H-imidazol-1-yl)phenylamino)-2-phenyl-2,3-dihydropyrido[3,2-f][1,4]oxazepin-4(5H)-yl)ethanol] |
| 0.631 | COc1cc(Nc2ccc3c(n2)OC(COC(C)C)CN(C(C)=O)C3)ccc1-n1cnc(C)c1 (stereo not shown) [Example 31, 1-(2-(Isopropoxymethyl)-8-(3-methoxy-4-(4-methyl-1H-imidazol-1-yl)phenylamino)-2,3-dihydropyrido[3,2-f][1,4]oxazepin-4(5H)-yl)ethanone] |
| 0.501 | OCCN1Cc2ccc(Nc3ccc(-n4cncn4)c(Cl)c3)nc2O[C@H](c2ccccc2)C1 [Example 32, (R)-2-(8-(3-Chloro-4-(1H-1,2,4-triazol-1-yl)phenylamino)-2-phenyl-2,3-dihydropyrido[3,2-f][1,4]oxazepin-4(5H)-yl)ethanol] |
| 0.316 | COc1cc(Nc2ccc3c(n2)OC(c2cc(C)nn2C)CN(CC#N)C3)ccc1-n1cnc(C)c1 (stereo not shown) [Example 33, 2-(2-(1,3-Dimethyl-1H-pyrazol-5-yl)-8-(3-methoxy-4-(4-methyl-1H-imidazol-1-yl)phenylamino)-2,3-dihydropyrido[3,2-f][1,4]oxazepin-4(5H)-yl)acetonitrile] |
| 0.251 | COc1cc(Nc2ccc3c(n2)O[C@H](c2ccccc2)CN(CCO)C3)ccc1-n1cncc1C [Example 34, (R)-2-(8-(3-Methoxy-4-(5-methyl-1H-imidazol-1-yl)phenylamino)-2-phenyl-2,3-dihydropyrido[3,2-f][1,4]oxazepin-4(5H)-yl)ethanol] |
| 0.2 | COc1cc(Nc2ccc3c(n2)OC(COC(C)C)CN(C)C3)ccc1-n1cnc(C)c1 (stereo not shown) [Example 35, 2-(Isopropoxymethyl)-N-(3-methoxy-4-(4-methyl-1H-imidazol-1-yl)phenyl)-4-methyl-2,3,4,5-tetrahydropyrido[3,2-f][1,4]oxazepin-8-amine] |
| 0.158 | COc1cc(Nc2ccc3c(n2)OC(c2ccccn2)CN(CC#N)C3)ccc1-n1cnc(C)c1 (stereo not shown) [Example 36, 2-(8-(3-Methoxy-4-(4-methyl-1H-imidazol-1-yl)phenylamino)-2-(pyridin-2-yl)-2,3-dihydropyrido[3,2-f][1,4]oxazepin-4(5H)-yl)acetonitrile] |
| 0.126 | COc1cc(Nc2ccc3c(n2)OC(c2ccccn2)CN(C)C3)ccc1-n1cnc(C)c1 (stereo not shown) [Example 37, N-(3-Methoxy-4-(4-methyl-1H-imidazol-1-yl)phenyl)-4-methyl-2-(pyridin-2-yl)-2,3,4,5-tetrahydropyrido[3,2-f][1,4]oxazepin-8-amine] |
| 0.1 | COc1cc(Nc2cnc3c(n2)O[C@H](c2ccccc2)CN(CC#N)C3)ccc1-n1cnc(C)c1 [Example 38, (R)-2-(3-(3-methoxy-4-(4-methyl-1H-imidazol-1-yl)phenylamino)-6-phenyl-6,7-dihydropyrazino[2,3-f][1,4]oxazepin-8(9H)-yl)acetonitrile] |
| 0.0794 | COc1cc(Nc2cnc3c(n2)O[C@H](c2ccccc2)CN(C)C3)ccc1-n1cnc(C)c1 [Example 39, (R)—N-(3-Methoxy-4-(4-methyl-1H-imidazol-1-yl)phenyl)-8-methyl-6-phenyl-6,7,8,9-tetrahydropyrazino[2,3-f][1,4]oxazepin-3-amine] |
| 0.0501 | COc1cc(Nc2ccc3c(n2)O[C@H](c2ccccc2)CN(C(=O)N(C)C)C3)ccc1-n1cnc(C)c1 [Example 40, (R)-8-(3-Methoxy-4-(4-methyl-1H-imidazol-1-yl)phenylamino)-N,N-dimethyl-2-phenyl-2,3-dihydropyrido[3,2-f][1,4]oxazepine-4(5H)-carboxamide] |
| 0.0398 | COc1cc(Nc2ccc3c(n2)O[C@H](c2ccccc2)CN(CCO)C3)ccc1-n1cnc(C)n1 [Example 41, (R)-2-(8-(3-Methoxy-4-(3-methyl-1H-1,2,4-triazol-1-yl)phenylamino)-2-phenyl-2,3-dihydropyrido[3,2-f][1,4]oxazepin-4(5H)-yl)ethanol] |
| 0.0316 | Cc1cn(-c2ccc(Nc3ccc4c(n3)O[C@H](c3ccccc3)CN(CCO)C4)cc2)cn1 [Example 42, (R)-2-(8-(4-(4-Methyl-1H-imidazol-1-yl)phenylamino)-2-phenyl-2,3-dihydropyrido[3,2-f][1,4]oxazepin-4(5H)-yl)ethanol] |
| 0.0316 | COc1cc(Nc2ccc3c(n2)O[C@H](c2ccccc2)CN(CCO)C3)cnc1-n1cnc(C)c1 [Example 43, (R)-2-(8-(5-methoxy-6-(4-methyl-1H-imidazol-1-yl)pyridin-3-ylamino)-2-phenyl-2,3-dihydropyrido[3,2-f][1,4]oxazepin-4(5H)-yl)ethanol] |
| 0.0316 | COc1cc(Nc2ccc3c(n2)O[C@H](c2ccccc2)CN(C)C3)ccc1-n1cnc(C)n1 [Example 44, (R)—N-(3-Methoxy-4-(3-methyl-1H-1,2,4-triazol-1-yl)phenyl)-4-methyl-2-phenyl-2,3,4,5-tetrahydropyrido[3,2-f][1,4]oxazepin-8-amine] |
| 0.0251 | COc1cc(Nc2ccc3c(n2)O[C@H](c2ccccc2)CN(C2CC2)C3)ccc1-n1cnc(C)n1 [Example 45, (R)-4-Cyclopropyl-N-(3-methoxy-4-(3-methyl-1H-1,2,4-triazol-1-yl)phenyl)-2-phenyl-2,3,4,5-tetrahydropyrido[3,2-f][1,4]oxazepin-8-amine] |
| 0.0251 | COc1cc(Nc2ccc3c(n2)OC(c2ccccc2)CN(CCO)C3)ccc1-n1cnc(C)c1 (stereo not shown) [Example 46, 2-(8-(3-Methoxy-4-(4-methyl-1H-imidazol-1-yl)phenylamino)-2-phenyl-2,3-dihydropyrido[3,2-f][1,4]oxazepin-4(5H)-yl)ethanol] |
| 0.0158 | COc1cc(Nc2ccc3c(n2)O[C@H](c2ccccc2)CN(CC#N)C3)ccc1-n1cnc(C)c1 [Example 47, (R)-2-(8-(3-Methoxy-4-(4-methyl-1H-imidazol-1-yl)phenylamino)-2-phenyl-2,3-dihydropyrido[3,2-f][1,4]oxazepin-4(5H)-yl)acetonitrile] |
| 0.1 | Cc1ncn(-c2ccc(Nc3ccc4c(n3)O[C@H](c3ccccc3)CN(C)C4)cc2)n1 [Example 48, (R)-4-Methyl-N-(4-(3-methyl-1H-1,2,4-triazol-1-yl)phenyl)-2-phenyl-2,3,4,5-tetrahydropyrido[3,2-f][1,4]oxazepin-8-amine] |
| 0.1 | COc1cc(Nc2ccc3c(n2)OC(C2CC2)CN(C)C3)ccc1-n1cnc(C)c1 (stereo not shown) [Example 49, 2-Cyclopropyl-N-(3-methoxy-4-(4-methyl-1H-imidazol-1-yl)phenyl)-4-methyl-2,3,4,5-tetrahydropyrido[3,2-f][1,4]oxazepin-8-amine] |
| 0.00794 | COc1nc(Nc2ccc3c(n2)O[C@H](c2ccccc2)CN(C)C3)ccc1-c1cnn(C)c1 [Example 50, (R)—N-(6-Methoxy-5-(1-methyl-1H-pyrazol-4-yl)pyridin-2-yl)-4-methyl-2-phenyl-2,3,4,5-tetrahydropyrido[3,2-f][1,4]oxazepin-8-amine] |
| 0.501 | COc1cc(Nc2ccc3c(n2)OC(C2CC2)CN(C)C3)ccc1-n1cnc(C)n1 (stereo not shown) [Example 51, 2-Cyclopropyl-N-(3-methoxy-4-(3-methyl-1H-1,2,4-triazol-1-yl)phenyl)-4-methyl-2,3,4,5-tetrahydropyrido[3,2-f][1,4]oxazepin-8-amine] |
| 0.398 | COc1cc(Nc2ccc3c(n2)OC(c2cccc(C)n2)CN(C)C3)ccc1-n1cnc(C)n1 (stereo not shown) [Example 52, N-(3-Methoxy-4-(3-methyl-1H-1,2,4-triazol-1-yl)phenyl)-4-methyl-2-(6-methylpyridin-2-yl)-2,3,4,5-tetrahydropyrido[3,2-f][1,4]oxazepin-8-amine] |
| 0.0501 | COc1nc(Nc2ccc3c(n2)OC(c2cccc(C)n2)CN(C)C3)ccc1-c1cnn(C)c1 (stereo not shown) [Example 53, N-(6-Methoxy-5-(1-methyl-1H-pyrazol-4-yl)pyridin-2-yl)-4-methyl-2-(6-methylpyridin-2-yl)-2,3,4,5-tetrahydropyrido[3,2-f][1,4]oxazepin-8-amine] |
| > 3.16 | Cc1cccc(C2CN(C)Cc3ccc(Nc4ccc(-c5cnn(C)c5)nc4)nc3O2)n1 (stereo not shown) [Example 54, 4-Methyl-N-(6-(1-methyl-1H-pyrazol-4-yl)pyridin-3-yl)-2-(6-methylpyridin-2-yl)-2,3,4,5-tetrahydropyrido[3,2-f][1,4]oxazepin-8-amine] |
| 0.0316 | COc1cc(Nc2ccc3c(n2)O[C@H](c2ccccc2)CNC3)ccc1-n1cnc(C)c1 [Example 55, (R)—N-(3-Methoxy-4-(4-methyl-1H-imidazol-1-yl)phenyl)-2-phenyl-2,3,4,5-tetrahydropyrido[3,2-f][1,4]oxazepin-8-amine] |
| 0.01 | COc1nc(Nc2ccc3c(n2)O[C@H](c2ccccc2)CNC3)ccc1-c1cnn(C)c1 [Example 56, (R)—N-(6-Methoxy-5-(1-methyl-1H-pyrazol-4-yl)pyridin-2-yl)-2-phenyl-2,3,4,5-tetrahydropyrido[3,2-f][1,4]oxazepin-8-amine] |
| 0.126 | Cn1cc(-c2ccc(Nc3ccc4c(n3)O[C@H](c3ccccc3)CNC4)nc2)cn1 [Example 57, (R)—N-(5-(1-Methyl-1H-pyrazol-4-yl)pyridin-2-yl)-2-phenyl-2,3,4,5-tetrahydropyrido[3,2-f][1,4]oxazepin-8-amine] |
